According to ChEMBL document CHEMBL3217471, “Prenyltransferase Inhibitors: Treating Human Ailments from Cancer to Parasitic Infections” (Medchemcomm, 2013):

Key:
[1] = molecular target: T1, Protein farnesyltransferase (Homo sapiens, UniProt P49354+P49356); assay: Inhibition of human recombinant FTase using [3H]farnesyldiphosphate; type: protein-complex assay
[2] = molecular target: Geranylgeranyl transferase type I (Homo sapiens, UniProt P49354+P53609); assay: Inhibition of human GGTase1 in human Burkitt lymphoma (Daudi) cell supernatant using [3H]geranylgeranyl
[3] = Inhibition of rat RabGGTase using [3H]GGPP by scintillation counting
[4] = molecular target: T1, Protein farnesyltransferase; assay: Binding affinity to FTase (unknown origin)
Homo sapiens = species on record: Homo sapiens; assay: Selectivity ratio of IC50 for human GGTase 1 in human Burkitt lymphoma (Daudi) cell supernatant to IC50 for human recombinant FTase
[5] = Inhibition of human RabGGTase using [3H]GGPP by scintillation counting

| SMILES | IC50 [1] [nM] | IC50 [2] [nM] | other results |
| --- | --- | --- | --- |
| Cn1cncc1CN(Cc1cccc(C#N)c1)c1ccc(C#N)c(-c2cccc3ccccc23)c1 | 0.39 | – | – |
| NC(=O)N1CCC(CC(=O)N2CCC([C@H]3c4ncc(Br)cc4CCc4cc(Cl)cc(Br)c43)CC2)CC1 [LONAFARNIB] | – | > 50000 | – |
| Cn1cncc1[C@@](N)(c1ccc(Cl)cc1)c1ccc2c(c1)c(-c1cccc(Cl)c1)cc(=O)n2C [TIPIFARNIB] | – | > 50000 | – |
| COc1ccc(S(=O)(=O)N2Cc3cc(-c4ccc(C#N)o4)ccc3N(Cc3cncn3C)C[C@H]2Cc2ccc(OC(=O)NCc3ccccc3)cc2)cc1 | > 9700 | > 99500 | IC50 [3]: 42 nM |
| COc1ccc(S(=O)(=O)N2Cc3cc(C#N)ccc3N(Cc3cncn3C)C[C@H]2Cc2ccccc2)cc1 | 6 | > 99500 | IC50 [3]: 724 nM |
| O=C(O)C(O)(Cc1cnc2ccccn12)P(=O)(O)O (single isomer, unassigned; (+)) [(2-HYDROXY-3-IMIDAZO[1,2-A]PYRIDIN-3-YL-2-PHOSPHONOPROPIONIC ACID (ENANTIONMERS)] | – | – | IC50 [3]: 1300 nM |
| O=C(O)C(Cl)(Cc1cccnc1)P(=O)(O)O (configuration not stated) | – | – | IC50 [3]: 16400 nM |
| CC(C)C[C@H](NC(=O)c1ccc(NC[C@@H](N)CS)cc1-c1ccccc1)C(=O)O | 25 | 5 | – |
| CC(C)=CCC/C(C)=C/CC/C(C)=C/CO[P@@](=O)(O)OP(=O)(O)O [FARNESYL DIPHOSPHATE] | – | – | Kd [4]: 2 nM |
| N#Cc1ccc2cc1Oc1ccc3c(c1)[C@@H](CCC3)N1CC[C@@H](NCc3cncn3C2)C1=O [(1R,5R)-30-OXO-19-OXA-2,6,10,12-TETRAAZAHEXACYCLO[18.6.2.1^{2,5}.1^{14,18}.0^{8,12}.0^{23,27}]TRIACONTA-8,10,14(29),15,17,20(28),21,23(27)-OCTAENE-17-CARBONITRILE (STRUCTURAL MIX)] | 0.02 | – | – |
| Cc1ccccc1-c1cc(NCc2c[nH]cn2)ccc1C(=O)N[C@@H](CC(C)C)C(=O)O | 5600 | 21 | Ratio IC50 (Homo sapiens): > 250 |
| O=C(O)C(O)(Cc1cccnc1)P(=O)(O)O (configuration not stated) | – | – | IC50 [3]: 24100 nM; IC50 [5]: 600000 nM |
| CSCC[C@H](NC(=O)c1ccc(NC[C@@H](N)CS)cc1-c1ccccc1)C(=O)O | – | 50 | – |

More lines, main results first:

| IC50 [1] [nM] | IC50 [2] [nM] | SMILES | other results |
| --- | --- | --- | --- |
| 1.35 | > 1000 | N#Cc1ccc2c(c1)CN(S(=O)(=O)c1cccs1)[C@@H](Cc1ccccc1)CN2Cc1ncc[nH]1 | – |
| 1.8 | 50 | CC(C)[C@@H](CO[C@@H](Cc1ccccc1)C(=O)N[C@@H](CCS(C)(=O)=O)C(=O)O)NC[C@@H](N)CS | – |
| 53000 | 9.5 | Cc1nc[nH]c1CN1CCN(C(=O)N[C@@H](CC(C)C)C(=O)O)[C@@H](Cc2ccccc2)C1=O [GGTI-2418] | Ratio IC50 (Homo sapiens): > 5000 |
| > 50000 | 466 | Cc1ccccc1S(=O)(=O)N1[C@H](C(C)(C)C)C[C@@H](C(=O)O)[C@@H]1c1ccc(Cl)cc1 | Ratio IC50 (Homo sapiens): 100 |
| 0.4 | – | O=C(NCCCn1ccnc1)[C@H]1CN([C@@H]2c3ccc(Cl)cc3CCc3cc(Br)cnc32)CCN1C(=O)NC1CCCCC1 | – |
